# Laboratory results from patent publication US20040147554A1, “Crystalline form of (3R,4R)-4-[3-(S)-hydroxy-3-(6-methoxy-quinolin-4-yl)propyl]-1-[2-2thienylthio)ethyl] piperidine-3-carboxylic acid” (Aventis Pharms S.A., priority 2002, published 2004).
# Key:
# Format in all cases: physicochemical
# [1] = Stability of the crystalline form versus humidity (powder X-ray diffraction)
# Method: The analyses are carried out on a Bruker D8 diffractometer having a copper-anticathode tube equipped with a front monochromator (wavelength of the copper Kα1 line: 1.54060 Å). The arrangement is of Bragg-Brentano type, with a point scintillation detector. The angular range swept extends from 2 to 40 degrees 2θ with a step of 0.02 degrees 2θ. The counting time is 120 seconds per step.
# Form C of (3R,4R)-4-[3-(S)-hydroxy-3-(6-methoxyquinolin-4-yl)propyl]-1-[2-(2-thienylthio)ethyl]piperidine-3-carboxylic acid is a monohydrate form. It is stable at 25° C. and at the degree of ambient humidity. It is particularly stable between 50% and 100% humidity.
# [2] = Stability of the crystalline form in alcohol/water mixtures; details: methanol/water or ethanol/water (1/1 by volume), after 30 days
# Method: by stirring a suspension of form A at a temperature of 20° C.-25° C., in tetrahydrofuran/demineralized water (50/50 by volume), methyl ethyl ketone/demineralized water (80/20 by volume to 20/80 by volume), acetonitrile/demineralized water (50/50 by volume to 20/80 by volume) or ethanol or methanol/demineralized water (50/50 by volume) mixtures, for 5 days to about 30 days.
# [3] = Loss in mass on heating below 50% humidity (dehydration); details: between 25° C. and 75° C., 1 mole of water/mole of the acid, dehydration to form B
# Method: Below 50% humidity, a loss in mass of 3.7% by weight is recorded between 25° C. and 75° C. (1 mole of water/mole of the acid). This loss in mass corresponds to the dehydration of the form C to give another form of (3R,4R)-4-[3-(S)-hydroxy-3-(6-methoxyquinolin-4-yl)propyl]-1-[2-(2-thienylthio)ethyl]piperidine-3-carboxylic acid, hereinafter known as form B.
humidity up to which the form is stable ([1]; humidity),"stability of the crystalline form ([1]; 25° C., ambient humidity)","stability by powder X-ray diffraction ([1]; 97% humidity, 20° C., after 11 weeks)",stability of the crystalline form in solvent mixture [2],loss in mass [3] [% by weight],Compound
up to 30%,–,–,–,–,"COc1ccc2nccc([C@@H](O)CC[C@@H]3CCN(CCSc4cccs4)C[C@@H]3C(=O)O)c2c1 [Form B, (3R,4R)-4-[3-(S)-hydroxy-3-(6-methoxyquinolin-4-yl)propyl]-1-[2-(2-thienylthio)ethyl]piperidine-3-carboxylic acid]"
–,stable,stability in the monohydtrate form,stable,3.7,"COc1ccc2nccc([C@@H](O)CC[C@@H]3CCN(CCSc4cccs4)C[C@@H]3C(=O)O)c2c1 [Form C, (3R,4R)-4-[3-(S)-hydroxy-3-(6-methoxyquinolin-4-yl)propyl]-1-[2-(2-thienylthio)ethyl]piperidine-3-carboxylic acid]"
